Experimental data taken from patent US10201532B2, “Compounds and their use” (ALLECRA THERAPEUTICS GMBH, priority 2010, dated 2019).

What was measured:
[1] = system: K. pneumoniae ATCC 700603 (SHV18); assay: Disk zone of inhibition, antibiotic + Compound-1 on same disk (Methodology 2); format: cell-based, Klebsiella pneumoniae; conditions: CAZ 30 μg or IPM 10 μg disk alone
Text: (§1) In this experiment, Compound-1 is used as a diagnostic reagent for the detection of β-lactamases belonging to the families KPC & ESBL (e.g., SHV18) producing Enterobacteriaceae. A simple set of absorbent paper disks impregnated with antibiotic on agar medium is used for the detection.
(§2) • 0.5 McFarland of the test organism was inoculated at 1:10 dilution on Muller • Hinton Agar plates • Test organisms: Klebsiella pneumoniae (K.p) ATCC BAA-1705, Klebsiella pneumoniae ATCC 700603, Escherichia coli (E.c) Ecoli233 • Carbapenem (e.g., Imipenem [IPM] 10 μg) and cephalosporin (e.g., Ceftazidime [CAZ] 30 μg) paper disks (7 mm) were placed on the inoculated agar plates • Compound-1 (60 μg) disk was placed at a distance of 7 & 10 mm from the carbapenem and cephalosporin disks. • The presence of expressed carbapenemases or ESBLs was measured as the expansion of Imipenem or Ceftazidime's inhibition zones due to synergy in the presence of Compound-1. Results:
(§3) The methodology remains the same as Methodology 1 except the following change • Compound-1 (60 μg) was added on the same disk in combination with a carbapenem (e.g., Imipenem 10 μg) or cephalosporin (e.g., Ceftazidime 30 μg) and placed on the inoculated agar plate. • The presence of the expressed carbapenemases or ESBLs was measured as an increase in Imipenem or Ceftazidime's zone diameter in combination with Compound-1 compared to antibiotic alone. Results

E. coli Ecoli233 (KPC3) [2] = assay: as above; format: cell-based, Escherichia coli; conditions: CAZ 30 μg or IPM 10 μg disk alone
Text: as §1
as §2, with “Compound-1.” for “Compound-1. Results:”
as §3

[3] = system: KPC-2 producing K. pneumoniae (ATCC BAA-1705); assay: Synergistic broth micro-dilution MIC (checkerboard); format: cell-based, Klebsiella pneumoniae
[4] = system: KPC2 K. pneumoniae ATCC BAA 1705; assay: Mice systemic infection model; format: in vivo; conditions: Klebsiella pneumoniae, BAA1705; mice, sub-cutaneous; with cilastatin; read-out: ED50 of Imipenem alone
Protocol: Female Swiss Albino mice, weighing 18-22 g were used for all studies. For each dose group, 5 or 6 mice were included. Study protocols were reviewed and approved by Institutional Animal Ethical Committee, Orchid Research Laboratories Limited. Mice were housed in individually ventilated cages provided with food and water ad libitum, throughout the study period. From overnight culture in Brain-Heart Infusion agar medium, challenge inoculum with required bacterial density was prepared in normal saline containing Hog gastric mucin. In studies involved with doripenem, washed bacterial cells was used. Each mouse was infected […] inoculum by intra-peritoneal injection.
Infected mice were dosed sub-cutaneously, with drug preparations at three different time points post-infection.
Imipenem with BLI combinations: Increasing concentrations of Imipenem as single agent or in combination with fixed concentration of BLIs were used to dose infected mice, sub-cutaneously. In this experiment Imipenem was always administered along with cilastatin. Doripenem with BLI combinations: Increasing concentrations of doripenem as single agent or in combination with fixed concentration of BLIs were used to dose infected mice, sub-cutaneously.
Survival of the treated mice were monitored twice a day, up to 7 days post-infection. Efficacy dose 50 (ED50) was calculated by Reed and Muench method (Reed, L. J.; Muench, H. “A simple method of estimating fifty percent endpoints”. The American Journal of Hygiene, 1938, 27: 493-497.).

[5] = system: KPC-3 expressing E. coli (J53 R6206); assay: Synergistic broth micro-dilution MIC (checkerboard); format: cell-based, Escherichia coli; conditions: no BLI
[6] = system: K. pneumoniae NCTC 13438 (KPC3); assay: Synergistic broth micro-dilution MIC; format: cell-based, Klebsiella pneumoniae
[7] = system: KPC2 K. pneumoniae ATCC BAA 1705; assay: Neutropenic mice thigh infection model (human adapted model); format: in vivo; conditions: Imipenem 140 mg/kg fractionated over 5.5 h; end point 6 h
Protocol: Female Swiss Albino mice weighing 24-30 g were used for all studies. Study protocols were reviewed and approved by Institutional Animal Ethical Committee, Orchid Research Laboratories Limited. Mice were rendered neutropenic by intra-peritoneal cyclophosphamide injections. Log phase culture in brain heart infusion broth was injected in to mice thighs. Imipenem or Doripenen alone or in combination were administered sub-cutaneously in decreasing fractionated doses every 15 minutes over the period of 5.5 h (Flückiger, U. et al. “Integration of pharmacokinetics and pharmacodynamics of Imipenem in a human-adapted mouse model’. Antimicrobial Agents and Chemother, 1991, 35(9): 1905-1910). The Compound-1 or tazobactam was administered sub-cutaneously as bolus dose at the start of dosing. Efficacy end point was 6 h in Imipenem studies and 8 h in Doripenen studies.
Three experiments were carried out where Doripenen alone or in combination with compound-1 or tazobactam (two experiments) were evaluated. Doripenem 70 mg/kg was administered in fractionated doses over the period of 5.5 h (Fluckiger, U. et al. “Integration of pharmacokinetics and pharmacodynamics of Imipenem in a human-adapted mouse model’. Antimicrobial Agents and Chemother., 1991, 35(9): 1905-1910). Compound-1 or tazobactam was administered as bolus dose at initiation of therapy. Efficacy end point was 8 h after initiation of therapy.

[8] = system: E. cloacae 01 MGH 049 (KPC2, AmpC); assay: Synergistic broth micro-dilution MIC; format: cell-based
E. coli Ecoli233 (KPC3) [9] = assay: Synergistic broth micro-dilution MIC; format: cell-based, Escherichia coli
[10] = system: E. coli ATCC 25922 (β-lac-ve); assay: Disk zone of inhibition, antibiotic + Compound-1 on same disk (Methodology 2); format: cell-based, Escherichia coli; conditions: CAZ 30 μg or IPM 10 μg disk alone; ATCC 25922
[11] = system: K. pneumoniae UMM3 (KPC2); assay: Synergistic broth micro-dilution MIC; format: cell-based, Klebsiella pneumoniae
[12] = system: K. pneumoniae ATCC BAA-1705 (KPC2); assay: Disk zone of inhibition, antibiotic + Compound-1 on same disk (Methodology 2); format: cell-based, Klebsiella pneumoniae; conditions: CAZ 30 μg or IPM 10 μg disk alone
Text: as §1
as §2, with “Compound-1.” for “Compound-1. Results:”
as §3

E. coli BAA-201 (TEM-3) = assay: MIC of Piperacillin with inhibitor, ESBL isolates; format: cell-based
E. coli BAA-200 (SHV-4) = assay: MIC of Piperacillin with inhibitor, ESBL isolates; format: cell-based, Escherichia coli
E. coli BAA-197 (TEM-12) = assay: MIC of Piperacillin with inhibitor, ESBL isolates; format: cell-based, Escherichia coli
E. coli BAA-199 (SHV-3) = assay: MIC of Piperacillin with inhibitor, ESBL isolates; format: cell-based, Escherichia coli
[13] = system: P. mirabilis BAA-663 (TEM-89); assay: MIC of Piperacillin with inhibitor, ESBL isolates; format: cell-based
[14] = system: K. pneumoniae 700603 (SHV-18); assay: MIC of Piperacillin with inhibitor, ESBL isolates; format: cell-based, Klebsiella pneumoniae
E. coli BAA-198 (TEM-26) = assay: MIC of Piperacillin with inhibitor, ESBL isolates; format: cell-based, Escherichia coli

Which “Zone of inhibition (ZOI), antibiotic alone” value (“Zone of inhibition (ZOI)” for short) [1] does the source give for C[C@@H](O)[C@H]1C(=O)N2C(C(=O)O)=C(SCCN=CN)C[C@H]12 [Imipenem] here?
The value was 25 mm.

And the “Zone of inhibition (ZOI)” value (E. coli Ecoli233 (KPC3) [2])?
The value was 14 mm.

And the MIC ([3]; Klebsiella pneumoniae, ATCCBAA1705, no BLI, ATCC BAA-1705, read-out: MIC of antibiotic alone (no BLI))?
The MIC was 32 to 64 µg/mL.

And the ED50 [4]?
Its ED50 is 8.9 mg/kg.

What about the “MIC of antibiotic alone (no BLI)” value [5] of the same compound?
Its value is 2 to 4 µg/mL.

What about the MIC ([6]; Klebsiella pneumoniae, NCTC13438, no BLI, read-out: MIC of imipenem, No BLI) of the same compound?
Its MIC is 128 µg/mL.

And the “Bacterial load, Imipenem alone” value [7]?
Its value is 6.8E+06 CFU/thigh.

What about the MIC ([8]; Enterobacter cloacae, no BLI, read-out: MIC of imipenem, No BLI) of the same compound?
Its MIC is 8 µg/mL.

And the MIC (E. coli Ecoli233 (KPC3) [9]; Escherichia coli, no BLI, read-out: MIC of imipenem, No BLI)?
Its MIC is 16 µg/mL.

What about the “Zone of inhibition (ZOI)” value [10] of the same compound?
Its value is 26.5 mm.

And the MIC ([11]; Klebsiella pneumoniae, no BLI, read-out: MIC of imipenem, No BLI)?
The MIC was 8 µg/mL.

What about the “Zone of inhibition (ZOI)” value [12] of the same compound?
The value was 14.5 mm.

Which “MIC of Piperacillin with inhibitor” value (E. coli BAA-201 (TEM-3); inhibitor at 1 μg/mL) does the source give for C[n+]1ccn(C[C@@]2(C)[C@H](C(=O)[O-])N3C(=O)C[C@H]3S2(=O)=O)c1 [Compound-12, (2S,3S,5R)-3-Methyl-3-(3-methyl-imidazol-3-ium-1-ylmethyl)-4,4,7-trioxo-4-thia-1-azabicyclo[3.2.0]heptane-2-carboxylate] here?
The value was 2 µg/mL.

And the “MIC of Piperacillin with inhibitor” value (E. coli BAA-201 (TEM-3); inhibitor at 2 μg/mL)?
The value was 4 µg/mL.

And the “MIC of Piperacillin with inhibitor” value (E. coli BAA-201 (TEM-3); inhibitor at 4 μg/mL)?
The value was 4 µg/mL.

And the “MIC of Piperacillin with inhibitor” value (E. coli BAA-200 (SHV-4); inhibitor at 1 μg/mL)?
Its value is 32 µg/mL.

What about the “MIC of Piperacillin with inhibitor” value (E. coli BAA-200 (SHV-4); inhibitor at 2 μg/mL) of the same compound?
The value was 8 µg/mL.

What about the “MIC of Piperacillin with inhibitor” value (E. coli BAA-200 (SHV-4); inhibitor at 4 μg/mL) of the same compound?
Its value is 4 µg/mL.

What about the “MIC of Piperacillin with inhibitor” value (E. coli BAA-197 (TEM-12); inhibitor at 1 μg/mL) of the same compound?
The value was 4 µg/mL.

What about the “MIC of Piperacillin with inhibitor” value (E. coli BAA-197 (TEM-12); inhibitor at 2 μg/mL) of the same compound?
Its value is 4 µg/mL.

What about the “MIC of Piperacillin with inhibitor” value (E. coli BAA-197 (TEM-12); inhibitor at 4 μg/mL) of the same compound?
Its value is 4 µg/mL.

What about the “MIC of Imipenem in combination with BLI” value ([3]; BLI at 4 μg/mL, ATCC BAA-1705) of the same compound?
The value was 4 µg/mL.

What about the “MIC of Imipenem in combination with BLI” value ([3]; BLI at 16 μg/mL, ATCC BAA-1705) of the same compound?
Its value is 4 µg/mL.

What about the “Activity with imipenem against the KPC (2 & 3) producing strains, in words” value ([3]; summary of Table 2, all five strains) of the same compound?
Its value is “improved activity”.

What about the “MIC of Piperacillin with inhibitor” value (E. coli BAA-199 (SHV-3); inhibitor at 1 μg/mL) of the same compound?
The value was over 128 µg/mL.

What about the “MIC of Piperacillin with inhibitor” value (E. coli BAA-199 (SHV-3); inhibitor at 2 μg/mL) of the same compound?
Its value is over 128 µg/mL.

And the “MIC of Piperacillin with inhibitor” value (E. coli BAA-199 (SHV-3); inhibitor at 4 μg/mL)?
Its value is 2 µg/mL.

And the “MIC of Imipenem in combination with BLI” value ([6]; BLI at 4 μg/mL)?
The value was 64 µg/mL.

And the “MIC of Piperacillin with inhibitor” value ([13]; inhibitor at 1 μg/mL)?
Its value is 8 µg/mL.

And the “MIC of Piperacillin with inhibitor” value ([13]; inhibitor at 2 μg/mL)?
Its value is 16 µg/mL.

And the “MIC of Piperacillin with inhibitor” value ([13]; inhibitor at 4 μg/mL)?
Its value is over 128 µg/mL.

What about the “MIC of Piperacillin with inhibitor” value ([14]; inhibitor at 1 μg/mL) of the same compound?
Its value is 8 µg/mL.

What about the “MIC of Piperacillin with inhibitor” value ([14]; inhibitor at 2 μg/mL) of the same compound?
Its value is 16 µg/mL.

What about the “MIC of Piperacillin with inhibitor” value ([14]; inhibitor at 4 μg/mL) of the same compound?
The value was 8 µg/mL.

And the “MIC of Imipenem in combination with BLI” value ([8]; BLI at 4 μg/mL)?
The value was 8 µg/mL.

And the “MIC of Imipenem in combination with BLI” value (E. coli Ecoli233 (KPC3) [9]; BLI at 4 μg/mL)?
Its value is 4 µg/mL.

And the “MIC of Imipenem in combination with BLI” value (E. coli Ecoli233 (KPC3) [9]; BLI at 16 μg/mL)?
Its value is 1 µg/mL.

What about the “MIC of Piperacillin with inhibitor” value (E. coli BAA-198 (TEM-26); inhibitor at 1 μg/mL) of the same compound?
The value was 4 µg/mL.

What about the “MIC of Piperacillin with inhibitor” value (E. coli BAA-198 (TEM-26); inhibitor at 2 μg/mL) of the same compound?
The value was 4 µg/mL.

And the “MIC of Piperacillin with inhibitor” value (E. coli BAA-198 (TEM-26); inhibitor at 4 μg/mL)?
Its value is 4 µg/mL.

What about the “MIC of Imipenem in combination with BLI” value ([11]; BLI at 4 μg/mL) of the same compound?
Its value is 2 µg/mL.
